Where two headings read alike, the source gives them in different places.
Columns and labels:
[1] = test system: Key Broadleaf Weed and Crop Species; assay: Post-emergent Test II herbicidal activity (Table 5); assay type: in vivo; conditions: post-emergence, 336 h, 14 days after application; for pest or weed control at 70 g/ha: application rate 70 g ai/ha; for pest or weed control at 140 g/ha: application rate 140 g ai/ha
Method in brief: (§1)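 Scoring: visual, 0–100% injury at 14 d versus untreated. Treatment: overhead track spray, 187 L/ha, onto plants at the first–second true leaf stage. Growth: greenhouse, ~15 h light, 23–29 °C day, 22–28 °C night.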

[2] = test system: Key Grass and Sedge Weeds as well as Grass Crops; assay: Post-emergent Test II herbicidal activity (Table 6); assay type: in vivo; conditions: post-emergence, 336 h; for pest or weed control at 70 g/ha: 70 g ai/ha; for pest or weed control at 140 g/ha: 140 g ai/ha
Method in brief: as §1

[3] = ABUTH: velvetleaf (Abutilon theophrasti), read-out: Visual Growth Reduction (%) 14 Days After Application, ABUTH
[4] = AMARE: redroot pigweed (Amaranthus retroflexus), read-out: Visual Growth Reduction (%) 14 Days After Application, AMARE
[5] = BRSNN: oilseed-rape, canola (Brassica napus), read-out: Visual Growth Reduction (%) 14 Days After Application, BRSNN
[6] = CHEAL: lambsquarters (Chenopodium album), read-out: Visual Growth Reduction (%) 14 Days After Application, CHEAL
[7] = EPHHL: wild poinsettia (Euphorbia heterophylla), read-out: Visual Growth Reduction (%) 14 Days After Application, EPHHL
[8] = HELAN: sunflower (Helianthus annuus), read-out: Visual Growth Reduction (%) 14 Days After Application, HELAN
[9] = VIOTR: wild pansy (Viola tricolor), read-out: Visual Growth Reduction (%) 14 Days After Application, VIOTR
[10] = CYPES: yellow nutsedge (Cyperus esculentus), read-out: Visual Growth Reduction (%) 14 Days After Application, CYPES
[11] = DIGSA: crabgrass (Digitaria sanguinalis), read-out: Visual Growth Reduction (%) 14 Days After Application, DIGSA
[12] = ECHCG: barnyardgrass (Echinochloa crus-galli), read-out: Visual Growth Reduction (%) 14 Days After Application, ECHCG
[13] = ORYSA: rice (Oryza sativa), crop, read-out: Visual Growth Reduction (%) 14 Days After Application, ORYSA
[14] = SETFA: giant foxtail (Setaria faberi), read-out: Visual Growth Reduction (%) 14 Days After Application, SETFA
[15] = SORVU: grain sorghum (Sorghum vulgare), read-out: Visual Growth Reduction (%) 14 Days After Application, SORVU
[16] = TRZSS (wheat, Triticum aestivum), crop, read-out: Visual Growth Reduction (%) 14 Days After Application, TRZSS
[17] = ZEAMX: maize, corn (Zea mays), crop, read-out: Visual Growth Reduction (%) 14 Days After Application, ZEAMX

| SMILES | pest or weed control at 70 g/ha [1, 3] | pest or weed control at 140 g/ha [1, 3] | pest or weed control at 70 g/ha [1, 4] | pest or weed control at 70 g/ha [1, 5] | pest or weed control at 140 g/ha [1, 5] | pest or weed control at 70 g/ha [1, 6] | pest or weed control at 140 g/ha [1, 6] | pest or weed control at 70 g/ha [1, 7] | pest or weed control at 70 g/ha [1, 8] | pest or weed control at 140 g/ha [1, 8] | pest or weed control at 70 g/ha [1, 9] | pest or weed control at 140 g/ha [1, 9] | pest or weed control at 70 g/ha [2, 10] | pest or weed control at 140 g/ha [2, 10] | pest or weed control at 70 g/ha [2, 11] | pest or weed control at 140 g/ha [2, 11] | pest or weed control at 70 g/ha [2, 12] | pest or weed control at 140 g/ha [2, 12] | pest or weed control at 70 g/ha [2, 13] | pest or weed control at 140 g/ha [2, 13] | also measured |
| --- | --- | --- | --- | --- | --- | --- | --- | --- | --- | --- | --- | --- | --- | --- | --- | --- | --- | --- | --- | --- | --- |
| C#Cc1ccc(-c2nc(C(=O)O)c(Cl)c(N)c2F)cc1 [Compound 62] | 75 to 84% | 75 to 84% | 95 to 100% | 95 to 100% | 95 to 100% | 85 to 94% | 85 to 94% | 95 to 100% | 85 to 94% | 95 to 100% | 0 to 29% | 0 to 29% | 95 to 100% | 95 to 100% | 85 to 94% | 85 to 94% | 95 to 100% | 95 to 100% | 0 to 29% | 0 to 29% | pest or weed control at 140 g/ha [1, 7]: 95 to 100%; pest or weed control at 70 g/ha [2, 14]: 95 to 100%; pest or weed control at 140 g/ha [2, 14]: 95 to 100%; pest or weed control at 70 g/ha [2, 15]: 75 to 84%; pest or weed control at 140 g/ha [2, 15]: 75 to 84%; pest or weed control at 70 g/ha [2, 16]: 45 to 59%; pest or weed control at 140 g/ha [2, 16]: 45 to 59%; pest or weed control at 70 g/ha [2, 17]: 75 to 84%; pest or weed control at 140 g/ha [2, 17]: 85 to 94%; melting point: 142 to 147 °C (dec.) |
| COC(=O)c1nc(-c2ccc(C(F)(F)F)c(F)c2F)nc(N)c1OC [Compound 64] | 95 to 100% | 95 to 100% | 45 to 59% | 75 to 84% | 85 to 94% | 95 to 100% | 95 to 100% | 95 to 100% | 95 to 100% | 95 to 100% | 60 to 74% | 60 to 74% | 45 to 59% | 60 to 74% | 60 to 74% | 85 to 94% | 45 to 59% | 85 to 94% | 0 to 29% | 0 to 29% | pest or weed control at 140 g/ha [1, 4]: 75 to 84%; pest or weed control at 140 g/ha [1, 7]: 95 to 100%; pest or weed control at 70 g/ha [2, 14]: 30 to 44%; pest or weed control at 140 g/ha [2, 14]: 60 to 74%; pest or weed control at 70 g/ha [2, 15]: 30 to 44%; pest or weed control at 140 g/ha [2, 15]: 45 to 59%; pest or weed control at 70 g/ha [2, 16]: 30 to 44%; pest or weed control at 140 g/ha [2, 16]: 45 to 59%; pest or weed control at 70 g/ha [2, 17]: 95 to 100%; pest or weed control at 140 g/ha [2, 17]: 95 to 100%; melting point: 140 to 141 °C |
| COc1c(N)nc(-c2ccc(C(F)(F)F)c(F)c2F)nc1C(=O)O [Compound 76] | 95 to 100% | 95 to 100% | 95 to 100% | 85 to 94% | 95 to 100% | 85 to 94% | 95 to 100% | 95 to 100% | 85 to 94% | 95 to 100% | 45 to 59% | 60 to 74% | 0 to 29% | 30 to 44% | 75 to 84% | 85 to 94% | 85 to 94% | 95 to 100% | 0 to 29% | 30 to 44% | pest or weed control at 140 g/ha [1, 4]: 95 to 100%; pest or weed control at 70 g/ha [2, 14]: 45 to 59%; pest or weed control at 140 g/ha [2, 14]: 60 to 74%; pest or weed control at 70 g/ha [2, 15]: 45 to 59%; pest or weed control at 140 g/ha [2, 15]: 45 to 59%; pest or weed control at 70 g/ha [2, 16]: 45 to 59%; pest or weed control at 140 g/ha [2, 16]: 45 to 59%; pest or weed control at 70 g/ha [2, 17]: 0 to 29%; pest or weed control at 140 g/ha [2, 17]: 95 to 100%; melting point: 169 to 170 °C |

From US9113629B2, “4-amino-6-(4-substituted-phenyl)-picolinates and 6-amino-2-(4-substituted-phenyl)-pyrimidine-4-carboxylates and their use as herbicides” (DOW AGROSCIENCES LLC, priority 2013, dated 2015)
